The text below walks through data of patent US20210393807A1, “PHOTOACOUSTIC VOLTAGE-SENSITIVE DYES FOR IN VIVO IMAGING” (The Johns Hopkins University, priority 2016, published 2021).

SMILES strings stand for the structures. Where “and” joins values, the source holds several entries; their conditions need not be identical. Identical values can stand only once. Entries after “also recorded” stand apart in the source; their conditions may differ.

Series [1] in a line: Spectrophotometric measurements of near-infrared VSD in lipid vesicle phantom. It is filed as physicochemical. An excerpt: 2.5.1 Photoacoustic imaging setup. For the recording of electrophysiological brain activities in vivo, an ultrasound research system was utilized that consisted of ultrasound array transducer (L 14-5/38) connected to a real-time data acquisition system (SonixDAQ, Ultrasonix Medical Corp., Canada). To induce the PA signals, pulsed laser light was generated by a second-harmonic (532 nm) Nd:YAG laser pumping an optical parametric oscillator (OPO) system (Phocus Inline, Opotek Inc., USA). The tunable range of the laser system was 690-900 nm and the maximum pulse repetition frequency was 20 Hz. The laser pulse was delivered into the probe through bifurcated fiber optic bundles, each 40 mm long and 0.88 mm wide. The PA probe was located at around the Interaural 11.2 mm and Bregma 2.2 mm to obtain the cross-section of motor cortexes (FIG. 15). The energy density at skin surface was only 3.5 mJ/cm^2, which is far below the ANSI safety limit restricting the 5-ns pulsed laser exposure at 700-1400 nm of wavelength range to be lower than 20 mJ/cm^2. 2.5.2 Lipid vesicle phantom preparation for VSD validation. The lipid vesicle model was prepared using the same procedure as in Zhang et al (Zhang, et al., 2017); 25-mg soybean phosphatidyl-choline (type II) suspended in 1 mL of K^+ buffer was used as the lipid vesicles. This vesicle contains 100 mM K2SO4 and 20 mM HEPES. The suspension was vortexed for 10 min, and followed by 60 min of sonication within bath-type sonicator to yield a translucent vesicle suspension. A Na^+ buffer was also prepared, which contains 100 mM Na2SO4 and 20 mM HEPES. […]
Otherwise, 2.5 μL of 1 mM gramicidin, a nonspecific monovalent cation ionophore, enables Na+ cations to move from outside to inside of vesicle membranes to short circuit the membrane potential (depolarized state). From these controls, our near-infrared VSD positively charged can move in and out through the vesicle membrane, leading to the change in fluorescence quenching depending on their aggregation status.

Series [2] is described as follows: Photoacoustic measurement and quantum yield estimation of near-infrared VSD in lipid vesicle phantom. As to conditions: for PA intensity decrease in depolarization state compared to polarized state (pure VSD contrast): 790 nm. It is filed as physicochemical. An excerpt:
(§1) 2.5.1 Photoacoustic imaging setup. For the recording of electrophysiological brain activities in vivo, an ultrasound research system was utilized that consisted of ultrasound array transducer (L 14-5/38) connected to a real-time data acquisition system (SonixDAQ, Ultrasonix Medical Corp., Canada). To induce the PA signals, pulsed laser light was generated by a second-harmonic (532 nm) Nd:YAG laser pumping an optical parametric oscillator (OPO) system (Phocus Inline, Opotek Inc., USA). The tunable range of the laser system was 690-900 nm and the maximum pulse repetition frequency was 20 Hz. The laser pulse was delivered into the probe through bifurcated fiber optic bundles, each 40 mm long and 0.88 mm wide. The PA probe was located at around the Interaural 11.2 mm and Bregma 2.2 mm to obtain the cross-section of motor cortexes (FIG. 15). The energy density at skin surface was only 3.5 mJ/cm^2, which is far below the ANSI safety limit restricting the 5-ns pulsed laser exposure at 700-1400 nm of wavelength range to be lower than 20 mJ/cm^2. 2.5.2 Lipid vesicle phantom preparation for VSD validation. The lipid vesicle model was prepared using the same procedure as in Zhang et al (Zhang, et al., 2017); 25-mg soybean phosphatidyl-choline (type II) suspended in 1 mL of K^+ buffer was used as the lipid vesicles. This vesicle contains 100 mM K2SO4 and 20 mM HEPES. The suspension was vortexed for 10 min, and followed by 60 min of sonication within bath-type sonicator to yield a translucent vesicle suspension. A Na^+ buffer was also prepared, which contains 100 mM Na2SO4 and 20 mM HEPES. Afterwards, approximately a 100:1 K^+ gradient across vesicle membrane was established with 10 μL of lipid vesicle suspension added to 1 mL of Na^+ buffer. In the vesicle phantom prepared, negative membrane potential (polarized state) was mimicked by adding 2.5 μL of 10 μM valinomycin—a K^+ specific ionophore, thereby K^+ ions were transported from inside to outside of vesicle membranes.
Otherwise, 2.5 μL of 1 mM gramicidin, a nonspecific monovalent cation ionophore, enables Na+ cations to move from outside to inside of vesicle membranes to short circuit the membrane potential (depolarized state).
2.5.3 Estimation of quantum yield change of VSD. The quantum yields of the near-infrared VSD in depolarized states […] were estimated based on the Eq. 8 and 9 disclosed previously. […] The quantum yield in the polarized state (ΦF) were also estimated by compensating for the absorbance and fluorescence emission changes when depolarized: ΦF=(CF/Cabs)Φ′F.

For a further series, the system named is rat brain motor cortex. The experiment in a line: Transcranial PA imaging of chemoconvulsant (PTZ) seizure neural activity. It is filed as in vivo, Sprague Dawley rats. As to conditions: for neural activity index (fractional change vs baseline): baseline 1.00±0.20.
Description: as §1
2.5.4 Animal preparation. For the proposed in vivo experiments. […]

For series [3], the system named is blood-brain barrier (BBB). The experiment in a line: PA intensity monitoring of VSD penetration through BBB with regadenoson. As to conditions: brain tissue region; intravenous; last 2 min (8-10 min), 480 time points. Format: in vivo, rat.
Description: (Carman, et al., 2011) For preliminary studies, the dosage and IV administration method indicated by the manufacturer was utilized. A volume of 150 μl of the standard concentration of 0.08 mg/1 ml was given to each animal regardless of the weight, followed by 150 μl flush of 0.9% sodium chloride for injection. VSD penetration was expected during the Lexiscan's biological half-life, i.e., 2-4 minutes, thereby the experimental protocol was designed based on the pharmacological assumption. In vivo experimental protocol. The in vivo protocols were respectively designed for three experimental groups: negative control, control, and seizure groups. […] Note that each data acquisition was performed for 10 min to cover the biological half-life of Lexiscan (2-3 min). Each dosing protocol of Lexiscan and VSD was as follows: through the jugular vein catheter port located in the neck, 150 μl of Lexiscan 0.4 mg/5 ml concentration was injected, and 300 μl of VSD was subsequently administrated at 0.1 mg/ml concentration, followed by 150 μl of saline solution flush. […] The negative control group was designed to validate the incapability of Lexiscan and PTZ to generate any bias on PA neural activity detection by excluding VSD administration. […]
The test system of series [4] is rat motor cortex. The series is described as follows: EEG validation of seizure activity in the in vivo protocol. As to conditions: IV VSD treatment; anesthetized rats.
Description: 2.5.9 EEG validation of neural seizure activity. To obtain the EEG records of electrical spike discharges that originated from motor cortex shown in FIG. 14, sub-dermal scalp EEG recording electrodes were located at the corresponding locations on motor cortex indicated by Xs in FIG. 21A, the schematic of the rat cranium (three electrodes, 1 recording and 1 reference over motor cortex, 1 ground electrode over rostrum). The EEG signal at motor cortex was recorded with the identical preparation procedures in PA imaging including animal preparation, administration of IR780, Lexiscan, and PTZ, time duration for recording, and interval between sequences in the protocol. Data acquisition was done using Sirenia software (Pinnacle Technologies Inc., Kansas, USA) with synchronous video capture. […] The files were stored in .EDF format and scored manually for protocol stages using real time annotations added to the recording during the experiments.
Series [5] deals with rat motor cortex. The series is described as follows: VSD toxicity study, EEG during direct cortical application via cranial window. Format: in vivo. The procedure:
2.5.10 Validation of protocol for using sub-dermal EEG electrodes to determine toxic CNS effects of VSDs. VSDs effect on EEG signal from sub-dermal scalp electrodes was investigated in a pilot by direct cortical applications of increasing concentrations of VSDs in anesthetized rat with limited craniotomies while recording synchronous vEEGs (FIG. 21).
Increasing concentrations of VSD were tested in the same rat at temporally spaced time-points. Rats were anesthetized with IP injection to ketamine/xylazine and a cranial window made over the right motor cortex. After recording a baseline EEG in the rat for 10-min duration with the craniotomy, the follow-on EEG recording continued to record EEG following application of increasing concentrations of vehicle alone and VSD+ vehicle for the same duration of EEG recordings (i.e., 10 min) allowing comparisons of EEG responses to each increasing gradient of VSD on cortical activity as compared to baseline EEG signature in the same rat.

The conditions of series [6]: in vivo; cited from earlier work.
Series [7] in a line: Spectrophoto/fluorometric characterization of PA-VSD in lipid vesicle suspension (valinomycin/gramicidin). Format: physicochemical. As to conditions: for fluorescence quenching (fractional change in fluorescence) upon valinomycin polarization: 9 μM concentration, emission 825 nm. As to the method:
Lipid vesicles were prepared from 25-mg soybean phosphatidylcholine (type II) suspended in 1 mL of K^+ buffer, which contains 100 mM K2SO4 and 20 mM HEPES. […] A Na^+ buffer containing 100 mM Na2SO4 and 20 mM HEPES was prepared. During experiments, 10 μL of vesicle suspension was added to 1 mL of Na^+ buffer, resulting in an approximately 100:1 K^+ gradient across vesicle membrane. VSD was added to this suspension. When 2.5 μL of 10 μM valinomycin—a K^+ specific ionophore—was added, K^+ ions were transported from inside to outside of vesicle membranes, resulting in a negative membrane potential. This negative potential drives the positively charged VSDs into the vesicles, which causes aggregation of dyes and quenching of fluorescence. Subsequent addition of 2.5 μL of 1 mM gramicidin, a nonspecific monovalent cation ionophore, allows Na^+ cations to move from outside to inside of vesicle membranes to short circuit the membrane potential.
A combined spectrophoto/fluorometer system (Spectramax i3x, Molecular Devices) was used to measure both fluorescence and absorbance of the PA-VSD with 1, 3, 6, and 9 μM concentrations. For fluorescence, the measurement was conducted for the spectral range from 750 to 850 nm at 10-nm increment, and the absorbance was measured in the range from 600 to 900 nm at 5-nm increments. Note that 720-nm wavelength was used for excitation during spectrofluorometry of the PA-VSD.

A short description of series [8]: Photoacoustic characterization of PA-VSD in lipid vesicle phantom. Format: physicochemical. To be noted: 800 nm; for fractional PA intensity change upon polarization: 20 samples. As to the method: Lipid vesicles were prepared from 25-mg soybean phosphatidylcholine (type II) suspended in 1 mL of K^+ buffer, which contains 100 mM K2SO4 and 20 mM HEPES. This suspension was vortexed for 10 min and sonicated in bath-type sonicator for 60 min, yielding a translucent vesicle suspension. A Na^+ buffer containing 100 mM Na2SO4 and 20 mM HEPES was prepared. During experiments, 10 μL of vesicle suspension was added to 1 mL of Na^+ buffer, resulting in an approximately 100:1 K^+ gradient across vesicle membrane. VSD was added to this suspension. When 2.5 μL of 10 μM valinomycin—a K^+ specific ionophore—was added, K^+ ions were transported from inside to outside of vesicle membranes, resulting in a negative membrane potential. This negative potential drives the positively charged VSDs into the vesicles, which causes aggregation of dyes and quenching of fluorescence. Subsequent addition of 2.5 μL of 1 mM gramicidin, a nonspecific monovalent cation ionophore, allows Na^+ cations to move from outside to inside of vesicle membranes to short circuit the membrane potential.
The PA sensing system was employed for the characterization of the synthesized PA-VSD (FIG. 3); Q-switched Nd:YAG laser integrated with an optical parametric oscillator (Phocus Inline and MagicPrism, Opotek Inc.) was used for PA signal generation. With the tunability of the laser system, the spectral responses for near-infrared wavelengths (i.e., 700 to 850 nm at 10-nm interval) were scanned with 20-Hz pulsed repetition frequency and […]. The light was delivered through an optical fiber bundle with a 9-mm round shaped output, which was aligned with an ultrasound receiver. The PAVSD in the lipid vesicles suspension was loaded into transparent tubes with 1.27-mm diameter (AAQ04133, Tygon®, SaintGobain Corp.), which were located at around 30 mm depth in the water tank. Note that the temperature of the water was consistently maintained at 22° C. during the experiments. A 10-MHz linear ultrasound probe (L 14-5/38, Ultrasonix Corp.) was used for PA-VSD sensing in a practical circumstance with a limited bandwidth (i.e., 75%-6 dB fractional bandwidth). Similarly, a hydrophone with wide flat bandwidth from 250 kHz to 20 MHz (HGL-1000, Onda Corp., California) was used to collect single line radio-frequency (RF) PA pressure signal. Twenty sets of PA data were collected, in which 19 of them were collected using the linear array transducer, and the other was through the hydrophone, and the average and standard deviation values were calculated. The PA signals acquired at the depth of target were used to form an averaged RF signal, which is further processed to present PA intensity at each optical wavelength; this permitted an accurate correlation with the spectrophotometric measurements. For the imaging setup, one set of data was obtained using the linear array transducer from 9 μM PA-VSD at 800-nm optical wavelength, and the difference between the resting and polarized states was analyzed.

[9] abbreviates: estimated with theoretical model.
Where [10] appears, read: direct cortical application, 100×.

As to `CCCN1/C(=C/C=C2\CCCC(/C=C/C3=[N+](CCC)c4ccccc4C3(C)C)=C2Cl)C(C)(C)c2ccccc21.[I-]` [IR780, IR780 perchlorate], the peak absorbance in [1] was 790 nm. In addition, in series [1] (valinomycin and gramicidin), the “absorbance change between polarized and depolarized states” value came out at 3%; the “fluorescence emission change between polarized and depolarized states” value stood at 40.1%. For the same compound, the “PA intensity decrease in depolarization state compared to polarized state (pure VSD contrast)” value in series [2] is 12.3±6.7%. Moreover, the “PA intensity decrease in depolarization state compared to polarized state (pure VSD contrast)” value in series [2] (listed as VSD) is 12.3% and 12.22%. Also, in [2] (setting [9]), the “quantum yield in the depolarized state” value is on record as 0.28±0.10 and the “quantum yield in the polarized state” value is recorded as 0.17±0.06. Also, the “neural activity index (fractional change vs baseline)” value with rat brain motor cortex (control group (VSD+Lexiscan, no PTZ)) is 0.93±0.25. Further, the “neural activity index (fractional change vs baseline)” value in the series on rat brain motor cortex (seizure group (VSD+Lexiscan+PTZ), motor cortex, 790 nm) was 2.40±0.42. Further, the “fractional increase of PA intensity from the natural condition (VSD−, Lexiscan−)” value in series [3] turned out to be 1.09±0.09. Moreover, the “PTZ evolution of status on EEG” value with rat motor cortex [4] is “did not alter”. For the same compound, in the series with rat motor cortex [5] (100×, over the 10-min recording period), the “course of EEG suppression” value is reported as “recovered to baseline”. Besides, in the series with rat motor cortex [5] (setting [10]), the “EEG effect of 100× solution” value is “significant EEG background suppression” and the “rats with significant EEG background suppression” value is 4/6. Moreover, the “effect on baseline EEG” value in the series with rat motor cortex [5] (direct cortical application, lower concentrations, 10-min recordings) is given as “no effect in altering the baseline EEG; also recorded: remained unaltered”.
On to `CNC(=O)c1cnn(-c2nc(N)c3ncn([C@@H]4O[C@H](CO)[C@@H](O)[C@H]4O)c3n2)c1` [Lexiscan, regadenoson], for which the neural activity index with rat brain motor cortex (negative control group without VSD, Lexiscan+/PTZ−) was 0.92±0.23. In addition, the biological half-life in series [6] is 2-4 min and 2-3 min.
As for `CCN1/C(=C/C=C/C=C/C=C/C2=[N+](CC)c3ccc4ccccc4c3C2(C)C)C(C)(C)c2c1ccc1ccccc21.[I-]` [PAVSD800-2], the “fluorescence quenching (fractional change in fluorescence) upon valinomycin polarization” value in series [7] is on record as “up to 49%”; in series [7] (listed as PA-VSD), 49%. Also, the fluorescence emission in [7] (in the presence of lipid membranes) was 828 nm. For the same compound, the “fractional PA intensity change upon polarization” value stood at 17% in [8] (1 μM), 24% in [8] (3 μM), 17% in [8] (6 μM) and 17% in [8] (9 μM). The “PA intensity increase in the polarized state” value in series [8] (6 μM, typical experiment) worked out at 14%. In [8] (9 μM, dataset chosen for reconstructed PA images), the “fractional change of PA signals” value was 22.72%.
